Literature values as cited in patent US20110160274A1 (PANACEA BIOTEC LIMITED, priority 2008, published 2011).

Settings: after oral administration of fenofibrate

SMILES: CC(C)(Oc1ccc(C(=O)c2ccc(Cl)cc2)cc1)C(=O)O [fenofibric acid]
- plasma elimination half life: about 20 hours
